Assay results: patent US20060069132A1, “Azolecarboxamide herbicides” (priority 2004, published 2006)

Assays:
[1] = test system: barnyardgrass; test: Test A pre-/postemergence herbicide test; format: in vivo, Echinochloa crus-galli
In short: (§1)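 Greenhouse injury scoring (0–100, complete control = 100) at approximately ten days follows simultaneous pre- and postemergence application. Soil received a directed spray after seeding; seedlings of 2–10 cm at the one- to two-leaf stage were sprayed to runoff.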

[2] = test system: velvetleaf; test: Test C pre-/postemergence herbicide test; format: in vivo, Abutilon theophrasti; conditions: for Plant response rating, Velvetleaf: preemergence; for Velvetleaf plant response rating: Preemergence, scale 0 to 100, 0 no effect, 100 complete control
In short: (§2)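 Pre/post spray; non-phytotoxic solvent + surfactant. Post-timing 1–4 leaves, 2–18 cm. Read-out: visual % control vs untreated, day 12–14, greenhouse.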

[3] = test system: eastern black nightshade; test: Test C pre-/postemergence herbicide test; format: in vivo, Solanum ptycanthum; conditions: for Plant response rating (0 = no effect, 100 = complete control), Nightshade / Plant response rating, Nightshade: preemergence; for Nightshade plant response rating: Preemergence, scale 0 to 100, 0 no effect, 100 complete control
In short: as §2

[4] = test system: morningglory; test: Test A pre-/postemergence herbicide test; format: in vivo, Ipomoea spp.
In short: as §1

[5] = test system: large crabgrass; test: Test C pre-/postemergence herbicide test; format: in vivo, Digitaria sanguinalis; conditions: for Plant response rating (0 = no effect, 100 = complete control), Crabgrass, Large / Plant response rating, Crabgrass, Large: preemergence; for Crabgrass, Large plant response rating: Preemergence, scale 0 to 100, 0 no effect, 100 complete control
In short: as §2

[6] = test system: bermudagrass; test: Test C pre-/postemergence herbicide test; format: in vivo, Cynodon dactylon; conditions: for Bermudagrass plant response rating: Preemergence, 500 g ai/ha
In short: as §2

[7] = test system: redroot pigweed; test: Test A pre-/postemergence herbicide test; format: in vivo, Amaranthus retroflexus
In short: as §1

[8] = test system: ducksalad; test: Test C flooded paddy test; format: in vivo, Heteranthera limosa; conditions: for Plant response rating, Ducksalad: 500 g ai/ha, visual rating after 12 to 14 days
[9] = Postemergence, 500 g ai/ha, 0 to 100 scale, 0 no effect, 100 complete control
[10] = Postemergence, 2000 g ai/ha, 0 to 100 scale, 0 no effect, 100 complete control
[11] = Preemergence, 500 g ai/ha, visual rating, 0 to 100 scale (0 no effect, 100 complete control)
[12] = Preemergence, 2000 g ai/ha, 0 to 100 scale, 0 no effect, 100 complete control
[13] = 125 g ai/ha, scale 0 (no effect) to 100 (complete control), visual, 12 to 14 days
[14] = 250 g ai/ha, scale 0 to 100 (0 no effect, 100 complete control), visual, 12 to 14 days
[15] = 125 g ai/ha, scale 0 (no effect) to 100 (complete control), visual, 12 to 14 days, preemergence
[16] = 250 g ai/ha, scale 0 to 100 (0 no effect, 100 complete control), visual, 12 to 14 days, preemergence
[17] = scale 0 to 100, 0 no effect, 100 complete control
[18] = 62 g ai/ha, scale 0 to 100 (0 no effect, 100 complete control)
[19] = 125 g ai/ha, scale of 0 to 100, 0 is no effect, 100 is complete control
[20] = 250 g ai/ha, scale of 0 to 100, 0 is no effect, 100 is complete control
[21] = scale 0 to 100 (0 no effect, 100 complete control)
[22] = Postemergence, 250 g ai/ha, 0 to 100 scale, 0 no effect, 100 complete control
[23] = Postemergence, 1000 g ai/ha, 0 to 100 scale, 0 no effect, 100 complete control
[24] = Preemergence, 1000 g ai/ha, visual rating, 0 to 100 scale (0 no effect, 100 complete control)
[25] = preemergence, 250 g ai/ha, visual injury, 0 to 100 scale (0 no effect, 100 complete control)
[26] = 125 g ai/ha, scale 0 to 100 (0 no effect, 100 complete control)
[27] = Preemergence, 2000 g ai/ha, visual rating, 0 to 100 scale (0 no effect, 100 complete control)
[28] = preemergence, 500 g ai/ha, visual injury, 0 to 100 scale (0 no effect, 100 complete control)
[29] = 62 g ai/ha, preemergence, scale 0 to 100, 0 no effect, 100 complete control
[30] = 250 g ai/ha, scale 0-100, preemergence
[31] = 500 g ai/ha, scale 0 to 100 (0 no effect, 100 complete control), visual, 12 to 14 days

Row | Structure (SMILES) | Plant response rating, Barnyardgrass [1, 10] | Plant response rating, Velvetleaf [2, 13] | Velvetleaf plant response rating ([2]; 500 g ai/ha) | Plant response rating (0 = no effect, 100 = complete control), Nightshade ([3]; 62 g ai/ha) | Plant response rating, Nightshade [3, 13] | Nightshade plant response rating ([3]; 500 g ai/ha) | Plant response rating, Morningglory [4, 10] | Plant response rating (0 = no effect, 100 = complete control), Crabgrass, Large ([5]; 62 g ai/ha) | Plant response rating, Crabgrass, Large [5, 13] | Plant response rating, Crabgrass, Large [5, 14] | Plant response rating, Bermudagrass [6, 15] | Bermudagrass plant response rating [6, 17] | Plant response rating, Pigweed [7, 10] | Ducksalad plant response rating [8, 18] | Ducksalad plant response rating [8, 20] | Plant response rating, Ducksalad [8, 21] | Barnyardgrass plant response rating [1, 9] | Morningglory plant response rating [4, 9] | Pigweed plant response rating [7, 9] | Ducksalad plant response rating [8, 26] | also measured
1 | CCCN1CCc2c(NC(=O)c3cc(C(C)(C)C)nn3CC)cccc2C1=O [Compound 65] | 75 | 0 | 60 | 50 | 90 | 100 | 10 | 50 | 50 | 80 | 85 | 95 | 70 | 15 | 75 | 85 |  |  |  |  | Plant response rating, Barnyardgrass [1, 9]: 45; Barnyardgrass plant response rating [1, 11]: 55; Barnyardgrass plant response rating [1, 12]: 70; Plant response rating, Morningglory [4, 9]: 10; Morningglory plant response rating [4, 11]: 5; Morningglory plant response rating [4, 12]: 5; Crabgrass, Large plant response rating ([5]; 500 g ai/ha): 100; Plant response rating (0 = no effect, 100 = complete control), Bermudagrass ([6]; 62 g ai/ha, preemergence): 40; Plant response rating, Bermudagrass [6, 16]: 95; Plant response rating, Pigweed [7, 9]: 70; Pigweed plant response rating [7, 11]: 100; Pigweed plant response rating [7, 12]: 100; Ducksalad plant response rating [8, 19]: 45
2 | CCOC(=O)c1cccc(NC(=O)c2cc(C(C)(C)C)nn2CC)c1C [Compound 88] | 100 | 0 | 50 | 40 | 90 | 95 | 40 | 90 | 95 | 95 | 95 | 95 | 100 | 0 | 40 | 75 | 85 | 35 | 90 |  | Barnyardgrass plant response rating [1, 11]: 75; Barnyardgrass plant response rating [1, 12]: 90; Morningglory plant response rating [4, 11]: 10; Morningglory plant response rating [4, 12]: 40; Crabgrass, Large plant response rating ([5]; 500 g ai/ha): 100; Plant response rating (0 = no effect, 100 = complete control), Bermudagrass ([6]; 62 g ai/ha, preemergence): 90; Plant response rating, Bermudagrass [6, 16]: 95; Pigweed plant response rating [7, 11]: 90; Pigweed plant response rating [7, 12]: 100; Ducksalad plant response rating [8, 19]: 15
3 | CCn1nc(C(C)(C)C)cc1C(=O)Nc1cccc(SC)c1 [Compound 131] |  | 15 |  | 55 | 95 |  |  | 45 | 90 | 90 | 90 |  |  | 0 | 45 | 80 |  |  |  | 20 | Barnyardgrass plant response rating [1, 22]: 25; Plant response rating, Barnyardgrass [1, 23]: 60; Barnyardgrass plant response rating [1, 24]: 50; Barnyardgrass plant response rating [1, 25]: 45; Morningglory plant response rating [4, 22]: 15; Plant response rating, Morningglory [4, 23]: 15; Morningglory plant response rating [4, 24]: 35; Morningglory plant response rating [4, 25]: 15; Plant response rating, Bermudagrass ([6]; 31 g ai/ha, scale 0 to 100, 0 no effect, 100 complete control, last section of Table C (species set of preemergence test)): 0; Plant response rating (0 = no effect, 100 = complete control), Bermudagrass ([6]; 62 g ai/ha, preemergence): 15; Plant response rating, Bermudagrass [6, 16]: 95; Pigweed plant response rating [7, 22]: 45; Plant response rating, Pigweed [7, 23]: 75; Pigweed plant response rating [7, 24]: 90; Pigweed plant response rating [7, 25]: 40
4 | C=CCNC(=O)c1cccc(NC(=O)c2sc(C(C)(C)C)nc2CC)c1 [Compound 207] | 70 | 10 | 60 |  | 75 | 100 | 15 |  | 90 |  | 80 | 100 | 45 | 55 | 80 | 85 | 40 | 20 | 30 | 80 | Barnyardgrass plant response rating [1, 27]: 80; Barnyardgrass plant response rating [1, 28]: 70; Plant response rating, Velvetleaf ([2]; 62 g ai/ha, scale 0 to 100): 0; Plant response rating, Velvetleaf ([2]; 250 g ai/ha, scale 0-100): 40; Plant response rating, Nightshade ([3]; 62 g ai/ha, scale 0 to 100): 60; Plant response rating, Nightshade ([3]; 250 g ai/ha, scale 0-100): 100; Morningglory plant response rating [4, 27]: 85; Morningglory plant response rating [4, 28]: 35; Plant response rating, Crabgrass, Large ([5]; 62 g ai/ha, scale 0 to 100): 80; Plant response rating, Crabgrass, Large ([5]; 250 g ai/ha, scale 0-100): 100; Crabgrass, Large plant response rating ([5]; 500 g ai/ha): 100; Plant response rating, Bermudagrass [6, 29]: 50; Plant response rating, Bermudagrass [6, 30]: 100; Pigweed plant response rating [7, 27]: 100; Pigweed plant response rating [7, 28]: 100
5 | CCNC(=O)c1cccc(NC(=O)c2sc(C(C)(C)C)nc2CC)c1 [Compound 210] | 80 | 0 |  |  | 100 |  | 25 |  | 80 |  | 80 | 100 | 80 | 40 | 85 | 90 | 80 | 20 | 60 | 55 | Barnyardgrass plant response rating [1, 27]: 90; Barnyardgrass plant response rating [1, 28]: 85; Plant response rating, Velvetleaf ([2]; 62 g ai/ha, scale 0 to 100): 0; Plant response rating, Velvetleaf ([2]; 250 g ai/ha, scale 0-100): 60; Plant response rating, Velvetleaf [2, 31]: 80; Plant response rating, Nightshade ([3]; 62 g ai/ha, scale 0 to 100): 80; Plant response rating, Nightshade ([3]; 250 g ai/ha, scale 0-100): 100; Plant response rating, Nightshade [3, 31]: 100; Morningglory plant response rating [4, 27]: 100; Morningglory plant response rating [4, 28]: 55; Plant response rating, Crabgrass, Large ([5]; 62 g ai/ha, scale 0 to 100): 80; Plant response rating, Crabgrass, Large ([5]; 250 g ai/ha, scale 0-100): 95; Plant response rating, Crabgrass, Large [5, 31]: 100; Plant response rating, Bermudagrass [6, 29]: 80; Plant response rating, Bermudagrass [6, 30]: 100; Pigweed plant response rating [7, 27]: 100; Pigweed plant response rating [7, 28]: 100
6 | CCc1nn(C(C)(C)C)cc1C(=O)Nc1cc(C(=O)N(CC)CC)ccc1F [Compound 223] | 55 |  |  |  | 100 |  | 60 |  | 100 |  | 80 | 100 | 55 | 0 | 25 | 55 | 10 | 50 | 50 | 0 | Barnyardgrass plant response rating [1, 27]: 80; Barnyardgrass plant response rating [1, 28]: 55; Plant response rating, Velvetleaf ([2]; 62 g ai/ha, scale 0 to 100): 0; Plant response rating, Velvetleaf ([2]; 250 g ai/ha, scale 0-100): 100; Plant response rating, Velvetleaf [2, 31]: 100; Plant response rating, Nightshade ([3]; 62 g ai/ha, scale 0 to 100): 100; Plant response rating, Nightshade ([3]; 250 g ai/ha, scale 0-100): 100; Plant response rating, Nightshade [3, 31]: 100; Morningglory plant response rating [4, 27]: 55; Morningglory plant response rating [4, 28]: 35; Plant response rating, Crabgrass, Large ([5]; 62 g ai/ha, scale 0 to 100): 100; Plant response rating, Crabgrass, Large ([5]; 250 g ai/ha, scale 0-100): 100; Plant response rating, Crabgrass, Large [5, 31]: 100; Plant response rating, Bermudagrass [6, 29]: 80; Plant response rating, Bermudagrass [6, 30]: 100; Pigweed plant response rating [7, 27]: 90; Pigweed plant response rating [7, 28]: 95
